Test results from the SangsterLogP compilation.

SMILES | logP
CCS(=O)c1sc(Cl)cc1C#N (configuration not stated) | 2.31
CCS(=O)c1sc(C(C)=O)c(N)c1C#N (configuration not stated) | 1.82
CS(=O)c1cccs1 (configuration not stated) | 0.91
CCCS(=O)c1sc(C#N)c(Cl)c1C#N (configuration not stated) | 2.95
CCS(=O)c1sc(C(C)=O)c(C)c1C#N (configuration not stated) | 2.22
CS(=O)c1ccsc1 (configuration not stated) | 0.91
CC(=O)c1sc(S(C)=O)c(-c2ccc(Cl)cc2)c1N (configuration not stated) | 3.18
CCS(=O)c1sc(C(C)=O)c(Cl)c1C#N (configuration not stated) | 2.64
Cc1c(C#N)sc(S(C)(=O)=O)c1-c1ccc(Cl)cc1 | 3.8
CCCCS(=O)c1sc(C#N)cc1C#N (configuration not stated) | 2.64
CCS(=O)c1ccc(C(C)=O)s1 (configuration not stated) | 1.31
CCCCS(=O)c1sc(C#N)c(Cl)c1C#N (configuration not stated) | 3.44
CCCS(=O)c1sc(C#N)cc1C#N (configuration not stated) | 2.18
CCS(=O)c1sc(C#N)c(OC)c1C#N (configuration not stated) | 2.35
CCS(=O)c1sc(C#N)c(C)c1C(C)=O (configuration not stated) | 2.22
CC(=O)c1sc(S(C)=O)c(C#N)c1-c1ccc(Cl)cc1 (configuration not stated) | 3.31
CCS(=O)c1sc(C#N)cc1C#N (configuration not stated) | 1.78

Other lines, results leading:

logP | SMILES
2.15 | CS(=O)c1sc(C#N)c(Cl)c1C#N (configuration not stated)
3.82 | CC(=O)c1sc(S(C)=O)c(-c2ccc(Cl)cc2)c1C (configuration not stated)
2.27 | CCOC(=O)c1cc(C#N)c(S(C)=O)s1 (configuration not stated)
2.19 | Cc1csc(S(C)=O)c1[N+](=O)[O-] (configuration not stated)
2.02 | COc1c(C#N)sc(S(C)=O)c1C#N (configuration not stated)
2.81 | CCS(=O)c1sc(C(C)=O)c(C)c1[N+](=O)[O-] (configuration not stated)
2.52 | CCCS(=O)c1sccc1[N+](=O)[O-] (configuration not stated)
1.69 | CS(=O)c1sccc1[N+](=O)[O-] (configuration not stated)
2.06 | CCS(=O)c1sccc1[N+](=O)[O-] (configuration not stated)
1.4 | CS(=O)c1ccc([N+](=O)[O-])s1 (configuration not stated)
1.71 | CS(=O)c1sccc1Br (configuration not stated)
3.2 | CS(=O)c1scc(-c2ccccc2)c1[N+](=O)[O-] (configuration not stated)
0.96 | CS(=O)c1sccc1C#N (configuration not stated)
2.65 | Cc1sc(S(C)=O)c([N+](=O)[O-])c1C (configuration not stated)
1.31 | CS(=O)c1sc(C#N)cc1C#N (configuration not stated)
